How the values were obtained:
Test in all cases: NanoBRET K192 assay (Promega)
Format in all cases: cell-based
Conditions in all cases: HEK293 cells
CLK2 = CLK2 (Homo sapiens, UniProt P49760); design: host or cells: HEK293 (HEK293T cultured)
Protocol: (§1) NanoBRET Target Engagement K192 assay. HEK293 cells (ATCC) were cultured in DMEM (Gibco) + 10% FBS (Seradigm) and incubated in a humidified 37°C/5% CO2 incubator. The NanoBRET Target Engagement K192 Kinase Selectivity System (Promega) contains 192 unique transfection-ready NanoLuc/Kinase fusions, pre-diluted in either transfection carrier DNA or relevant cyclin DNA. These NanoLuc/Kinase fusion constructs were transfected into HEK293 cells using Fugene HD (Promega) according to the manufacturer’s protocol. Briefly, 10 µL of a 20 µg/mL DNA solution was added to white, TC-treated 96-well assay plates (Corning), followed by 30 µL of a diluted Fugene HD solution (20 µL Fugene/1 mL Opti-MEM). After transfection complex formation, HEK293 cells were resuspended at 3.3 × 105 c/mL in Opti-MEM + 1% FBS and added at a volume of 60 µL per well, to result in approximately 20000 cells/well. Cells were incubated in a humidified 37°C/5% CO2 incubator for 20 hours. Tracer K-10 (Promega) was prepared at a 100× concentration in DMSO (Sigma) and diluted to a working concentration of 10× in tracer dilution buffer (12.5 mM HEPES, 31.25% PEG400, pH 7.5) (Promega). Test compounds were prepared as concentrated stock solutions in DMSO and diluted in Opti-MEM to prepare 10× working stocks. Cells were equilibrated with test compounds and Tracer K-10 for 2 hours prior to BRET measurements. For target engagement analysis, Tracer K-10 was added to cells at one of 4 […]
(§2) manufacturer’s protocol. To measure BRET, NanoBRET NanoGlo Substrate and Extracellular NanoLuc Inhibitor (Promega) were added according to the manufacturer’s protocol, and filtered luminescence was measured on a GloMax Discover luminometer equipped with 450 nm BP filter (donor) and 600 nm LP filter (acceptor), using 0.5 s integration time. Milli-BRET units are calculated by multiplying the raw BRET units by 1000.
(§3) For Fractional Occupancy determination, the following equation was used:
(§4) % Occupancy = [1-(X-Z)/(Y-Z)]×100
(§5) Where X = BRET in the presence of the test compound and Tracer K10, Y = BRET in the presence of Tracer K10 only, and Z = Full occupancy, or BRET in the absence of the test compound and […]
(§6) Tracer K10. […]

CLK4 = CLK4 (Homo sapiens, UniProt Q9HAZ1); design: host or cells: HEK293 (HEK293T cultured)
Protocol: as §1, §2, §3, §4, §5, §6

STK33 = STK33 (Homo sapiens, UniProt Q9BYT3); design: host or cells: HEK293 (HEK293T cultured)
Protocol: as §1, §2, §3, §4, §5, §6

CLK1 = CLK1 (Homo sapiens, UniProt P49759); design: host or cells: HEK293 (HEK293T cultured)
Protocol: as §1, §2, §3, §4, §5, §6

RET = RET (Homo sapiens, UniProt P07949); design: host or cells: HEK293 (HEK293T cultured)
Protocol: as §1, §2, §3, §4, §5, §6

PHKG1 = biological target: T1, PHKG1 (Homo sapiens, UniProt Q16816)
T1 construct: against 192 full-length protein kinases in human embryonic kidney 293 (HEK293) cells; host or cells: HEK293
Protocol: as §1, §2, §3, §4, §5, §6

NTRK2 = biological target: T2, NTRK2 (Homo sapiens, UniProt Q16620)
T2 construct: against 192 full-length protein kinases in human embryonic kidney 293 (HEK293) cells; host or cells: HEK293
Protocol: as §1, §2, §3, §4, §5, §6

FLT3 = biological target: T3, FLT3 (Homo sapiens, UniProt P36888)
T3 construct: against 192 full-length protein kinases in human embryonic kidney 293 (HEK293) cells; host or cells: HEK293
Protocol: as §1, §2, §3, §4, §5, §6

FER = biological target: T4, FER (Homo sapiens, UniProt P16591)
T4 construct: against 192 full-length protein kinases in human embryonic kidney 293 (HEK293) cells; host or cells: HEK293
Protocol: as §1, §2, §3, §4, §5, §6

PTK2B = biological target: T5, PTK2B (Homo sapiens, UniProt Q14289)
T5 construct: against 192 full-length protein kinases in human embryonic kidney 293 (HEK293) cells; host or cells: HEK293
Protocol: as §1, §2, §3, §4, §5, §6

EPHA1 = biological target: T6, EPHA1 (Homo sapiens, UniProt P21709)
T6 construct: against 192 full-length protein kinases in human embryonic kidney 293 (HEK293) cells; host or cells: HEK293
Protocol: as §1, §2, §3, §4, §5, §6

NTRK1 = biological target: T7, NTRK1 (Homo sapiens, UniProt P04629)
T7 construct: against 192 full-length protein kinases in human embryonic kidney 293 (HEK293) cells; host or cells: HEK293
Protocol: as §1, §2, §3, §4, §5, §6

CSNK1G2 = biological target: T8, CSNK1G2 (Homo sapiens, UniProt P78368)
T8 construct: against 192 full-length protein kinases in human embryonic kidney 293 (HEK293) cells; host or cells: HEK293
Protocol: as §1, §2, §3, §4, §5, §6

PHKG2 = biological target: T9, PHKG2 (Homo sapiens, UniProt P15735)
T9 construct: against 192 full-length protein kinases in human embryonic kidney 293 (HEK293) cells; host or cells: HEK293
Protocol: as §1, §2, §3, §4, §5, §6

MAP4K2 = biological target: T10, MAP4K2 (Homo sapiens, UniProt Q12851)
T10 construct: against 192 full-length protein kinases in human embryonic kidney 293 (HEK293) cells; host or cells: HEK293
Protocol: as §1, §2, §3, §4, §5, §6

BMP2K = biological target: T11, BMP2K (Homo sapiens, UniProt Q9NSY1)
T11 construct: against 192 full-length protein kinases in human embryonic kidney 293 (HEK293) cells; host or cells: HEK293
Protocol: as §1, §2, §3, §4, §5, §6

PTK2 = biological target: T12, PTK2 (Homo sapiens, UniProt Q05397)
T12 construct: against 192 full-length protein kinases in human embryonic kidney 293 (HEK293) cells; host or cells: HEK293
Protocol: as §1, §2, §3, §4, §5, §6

AAK1 = biological target: T13, AAK1 (Homo sapiens, UniProt Q2M2I8)
T13 construct: against 192 full-length protein kinases in human embryonic kidney 293 (HEK293) cells; host or cells: HEK293
Protocol: as §1, §2, §3, §4, §5, §6

STK4 = biological target: T14, STK4 (Homo sapiens, UniProt Q13043)
T14 construct: against 192 full-length protein kinases in human embryonic kidney 293 (HEK293) cells; host or cells: HEK293
Protocol: as §1, §2, §3, §4, §5, §6

GAK = biological target: T15, GAK (Homo sapiens, UniProt O14976)
T15 construct: against 192 full-length protein kinases in human embryonic kidney 293 (HEK293) cells; host or cells: HEK293
Protocol: as §1, §2, §3, §4, §5, §6

CLK2, sequence (P49760 whole entry, the tested form may be a part): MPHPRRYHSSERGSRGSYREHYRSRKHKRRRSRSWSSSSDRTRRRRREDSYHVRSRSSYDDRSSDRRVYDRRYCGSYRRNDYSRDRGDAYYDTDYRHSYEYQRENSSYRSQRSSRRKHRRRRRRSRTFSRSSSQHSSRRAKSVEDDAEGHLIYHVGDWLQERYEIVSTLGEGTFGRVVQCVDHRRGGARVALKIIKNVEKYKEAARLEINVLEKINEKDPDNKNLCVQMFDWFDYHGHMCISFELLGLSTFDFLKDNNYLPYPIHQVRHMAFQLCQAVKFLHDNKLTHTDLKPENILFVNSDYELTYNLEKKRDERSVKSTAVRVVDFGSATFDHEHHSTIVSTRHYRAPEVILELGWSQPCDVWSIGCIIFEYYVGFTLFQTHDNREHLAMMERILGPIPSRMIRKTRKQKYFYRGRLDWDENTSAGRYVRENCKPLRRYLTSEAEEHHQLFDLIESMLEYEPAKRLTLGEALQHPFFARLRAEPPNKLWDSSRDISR
CLK4, sequence (Q9HAZ1 whole entry): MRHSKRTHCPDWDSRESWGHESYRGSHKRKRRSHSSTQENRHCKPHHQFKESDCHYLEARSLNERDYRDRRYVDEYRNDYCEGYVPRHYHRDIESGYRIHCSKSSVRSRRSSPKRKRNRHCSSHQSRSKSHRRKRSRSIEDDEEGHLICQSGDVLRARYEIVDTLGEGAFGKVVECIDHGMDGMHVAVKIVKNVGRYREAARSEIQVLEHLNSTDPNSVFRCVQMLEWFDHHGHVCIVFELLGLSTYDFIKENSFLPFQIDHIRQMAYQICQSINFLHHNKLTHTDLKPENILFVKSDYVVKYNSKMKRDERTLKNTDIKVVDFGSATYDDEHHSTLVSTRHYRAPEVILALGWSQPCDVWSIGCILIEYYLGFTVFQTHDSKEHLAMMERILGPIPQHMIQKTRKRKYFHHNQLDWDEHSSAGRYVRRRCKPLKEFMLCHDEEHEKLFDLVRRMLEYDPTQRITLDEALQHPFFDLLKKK
CLK1, sequence (P49759 whole entry): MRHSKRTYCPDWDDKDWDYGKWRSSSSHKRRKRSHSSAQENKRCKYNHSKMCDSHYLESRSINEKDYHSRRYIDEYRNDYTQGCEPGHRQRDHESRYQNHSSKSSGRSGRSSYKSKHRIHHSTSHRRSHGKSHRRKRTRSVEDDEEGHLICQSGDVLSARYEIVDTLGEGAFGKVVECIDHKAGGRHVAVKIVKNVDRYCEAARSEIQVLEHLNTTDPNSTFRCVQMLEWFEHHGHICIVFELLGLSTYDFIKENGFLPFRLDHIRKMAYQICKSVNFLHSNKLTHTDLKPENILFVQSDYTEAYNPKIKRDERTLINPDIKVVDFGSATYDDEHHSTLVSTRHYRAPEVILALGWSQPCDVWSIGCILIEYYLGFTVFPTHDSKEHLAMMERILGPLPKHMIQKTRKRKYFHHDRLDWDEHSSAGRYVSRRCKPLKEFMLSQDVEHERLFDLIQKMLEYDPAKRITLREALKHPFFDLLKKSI
RET, sequence (P07949 29-1114): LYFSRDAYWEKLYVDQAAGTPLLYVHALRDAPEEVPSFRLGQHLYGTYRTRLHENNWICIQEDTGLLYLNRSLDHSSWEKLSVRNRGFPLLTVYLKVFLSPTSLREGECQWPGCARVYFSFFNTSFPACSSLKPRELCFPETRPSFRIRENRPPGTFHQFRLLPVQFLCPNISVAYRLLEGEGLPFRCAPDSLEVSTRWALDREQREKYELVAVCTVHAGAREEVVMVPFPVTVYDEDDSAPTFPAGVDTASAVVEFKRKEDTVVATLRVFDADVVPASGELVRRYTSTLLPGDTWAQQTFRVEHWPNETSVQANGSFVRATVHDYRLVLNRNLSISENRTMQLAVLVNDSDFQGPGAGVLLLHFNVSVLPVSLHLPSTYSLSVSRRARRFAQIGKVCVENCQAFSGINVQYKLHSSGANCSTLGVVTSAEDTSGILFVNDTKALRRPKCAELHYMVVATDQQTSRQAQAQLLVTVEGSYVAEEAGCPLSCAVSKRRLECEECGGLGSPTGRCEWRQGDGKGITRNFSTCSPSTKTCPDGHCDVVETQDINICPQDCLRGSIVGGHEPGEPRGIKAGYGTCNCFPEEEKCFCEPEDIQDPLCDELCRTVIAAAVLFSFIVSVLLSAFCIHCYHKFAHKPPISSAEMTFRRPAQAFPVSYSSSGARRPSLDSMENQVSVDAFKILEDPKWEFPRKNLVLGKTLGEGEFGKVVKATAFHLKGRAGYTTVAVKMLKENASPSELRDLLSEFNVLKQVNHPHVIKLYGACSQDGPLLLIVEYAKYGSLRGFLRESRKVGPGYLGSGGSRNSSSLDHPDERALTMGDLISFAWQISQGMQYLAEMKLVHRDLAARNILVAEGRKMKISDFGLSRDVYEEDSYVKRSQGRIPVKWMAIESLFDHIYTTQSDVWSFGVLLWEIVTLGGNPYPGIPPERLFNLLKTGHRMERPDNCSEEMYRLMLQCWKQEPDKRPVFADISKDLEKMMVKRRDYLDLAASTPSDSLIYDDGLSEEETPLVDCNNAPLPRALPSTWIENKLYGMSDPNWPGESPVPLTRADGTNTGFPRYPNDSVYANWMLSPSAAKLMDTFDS
T14 sequence (Q13043 whole entry): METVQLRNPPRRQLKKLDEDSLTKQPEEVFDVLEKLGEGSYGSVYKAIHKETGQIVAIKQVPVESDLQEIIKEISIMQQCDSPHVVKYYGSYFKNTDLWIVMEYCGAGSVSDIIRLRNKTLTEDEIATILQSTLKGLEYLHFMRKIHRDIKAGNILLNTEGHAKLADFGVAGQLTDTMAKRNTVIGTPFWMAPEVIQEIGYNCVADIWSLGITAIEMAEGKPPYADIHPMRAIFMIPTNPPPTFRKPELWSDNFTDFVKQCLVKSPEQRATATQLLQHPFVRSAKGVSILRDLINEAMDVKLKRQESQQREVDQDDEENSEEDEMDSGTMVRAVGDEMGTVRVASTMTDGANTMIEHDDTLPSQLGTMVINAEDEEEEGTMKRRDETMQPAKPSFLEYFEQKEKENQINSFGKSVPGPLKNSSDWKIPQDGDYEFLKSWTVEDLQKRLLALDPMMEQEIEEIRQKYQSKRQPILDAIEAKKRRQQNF
T1 sequence (Q16816 whole entry): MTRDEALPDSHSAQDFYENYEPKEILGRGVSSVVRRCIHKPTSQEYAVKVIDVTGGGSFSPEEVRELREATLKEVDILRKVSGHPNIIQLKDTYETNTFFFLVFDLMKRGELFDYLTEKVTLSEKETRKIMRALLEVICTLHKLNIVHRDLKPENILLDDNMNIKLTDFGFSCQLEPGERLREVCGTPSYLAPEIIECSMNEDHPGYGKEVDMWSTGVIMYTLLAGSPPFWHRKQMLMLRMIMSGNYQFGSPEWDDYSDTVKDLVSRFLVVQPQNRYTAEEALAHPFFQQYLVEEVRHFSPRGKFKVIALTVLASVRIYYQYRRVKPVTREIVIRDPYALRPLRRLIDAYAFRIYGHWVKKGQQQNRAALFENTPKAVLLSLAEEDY
T15 sequence (O14976 whole entry): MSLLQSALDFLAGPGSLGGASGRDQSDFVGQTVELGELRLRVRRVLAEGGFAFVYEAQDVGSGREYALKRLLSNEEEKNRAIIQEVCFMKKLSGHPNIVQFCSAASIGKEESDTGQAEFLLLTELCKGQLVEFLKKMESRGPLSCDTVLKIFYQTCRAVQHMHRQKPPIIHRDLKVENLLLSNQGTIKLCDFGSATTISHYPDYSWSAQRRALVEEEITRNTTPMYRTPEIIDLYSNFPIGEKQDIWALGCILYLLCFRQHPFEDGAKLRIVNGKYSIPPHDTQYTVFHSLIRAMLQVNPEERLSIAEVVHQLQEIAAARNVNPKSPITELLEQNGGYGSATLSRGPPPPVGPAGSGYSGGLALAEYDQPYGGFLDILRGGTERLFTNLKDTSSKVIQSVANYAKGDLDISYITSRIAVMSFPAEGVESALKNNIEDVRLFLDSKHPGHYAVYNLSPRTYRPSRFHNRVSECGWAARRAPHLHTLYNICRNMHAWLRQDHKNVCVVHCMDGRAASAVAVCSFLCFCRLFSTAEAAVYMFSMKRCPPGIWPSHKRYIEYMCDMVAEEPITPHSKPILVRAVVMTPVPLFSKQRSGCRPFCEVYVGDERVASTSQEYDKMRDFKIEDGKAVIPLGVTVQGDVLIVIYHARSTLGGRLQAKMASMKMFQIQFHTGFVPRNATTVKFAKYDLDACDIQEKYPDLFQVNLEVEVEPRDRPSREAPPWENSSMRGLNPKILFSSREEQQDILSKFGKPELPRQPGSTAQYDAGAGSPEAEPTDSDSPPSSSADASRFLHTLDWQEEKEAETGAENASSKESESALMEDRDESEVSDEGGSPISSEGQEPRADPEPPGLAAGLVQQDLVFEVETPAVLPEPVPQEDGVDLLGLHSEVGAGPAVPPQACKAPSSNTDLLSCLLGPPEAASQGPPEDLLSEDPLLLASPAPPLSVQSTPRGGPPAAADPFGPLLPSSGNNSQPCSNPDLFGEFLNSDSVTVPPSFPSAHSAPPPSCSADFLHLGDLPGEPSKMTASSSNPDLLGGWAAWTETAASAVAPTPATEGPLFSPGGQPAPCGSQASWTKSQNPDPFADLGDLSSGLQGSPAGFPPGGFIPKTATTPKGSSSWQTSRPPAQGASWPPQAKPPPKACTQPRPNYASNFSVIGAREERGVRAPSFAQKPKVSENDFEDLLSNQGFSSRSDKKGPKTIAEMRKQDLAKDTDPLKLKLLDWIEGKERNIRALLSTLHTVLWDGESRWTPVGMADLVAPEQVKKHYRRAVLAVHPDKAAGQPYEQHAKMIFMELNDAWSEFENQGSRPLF

Compound: O=C(c1ccc2[nH]nc(C#Cc3ccccc3-c3ccccc3)c2c1)N1CC2(CCCNC2)C1 [CDD-2807]
- receptor occupancy at 1 µM (CLK2; HEK293, at 1 µM): 89.7%
- NanoBRET K192 assay % Occupancy CLK2 (CLK2; at 1 µM): > 80%
- receptor occupancy at 1 µM (CLK4; HEK293, at 1 µM): 94.7 ± 0.1%
- NanoBRET K192 assay % Occupancy CLK4 (CLK4; at 1 µM): > 80%
- receptor occupancy at 1 µM (STK33): 95.9%
- receptor occupancy at 1 µM (CLK1; HEK293, at 1 µM): 83.5 ± 0.1%
- NanoBRET K192 assay % Occupancy CLK1 (CLK1; at 1 µM): > 80%
- receptor occupancy at 1 µM (RET; HEK293, at 1 µM): 85.8 ± 0.2%
- NanoBRET K192 assay % Occupancy RET (RET; at 1 µM): > 80%
- receptor occupancy at 1 µM (PHKG1): 58.4 ± 2.9%
- receptor occupancy at 1 µM (NTRK2): 44.5%
- receptor occupancy at 1 µM (FLT3): 30.3 ± 2.6%
- receptor occupancy at 1 µM (FER): 38 ± 1.2%
- receptor occupancy at 1 µM (PTK2B): 45.2 ± 0.2%
- receptor occupancy at 1 µM (EPHA1): 30.6 ± 2.4%
- receptor occupancy at 1 µM (NTRK1): 31.8 ± 1%
- receptor occupancy at 1 µM (CSNK1G2): 32.4 ± 1.3%
- receptor occupancy at 1 µM (PHKG2): 59.2 ± 1.2%
- receptor occupancy at 1 µM (MAP4K2): 40 ± 0.6%
- receptor occupancy at 1 µM (BMP2K): 54.5 ± 0.3%
- receptor occupancy at 1 µM (PTK2): 76.5 ± 0.2%
- receptor occupancy at 1 µM (AAK1): 56.4 ± 1.3%
- receptor occupancy at 1 µM (STK4): 30.3 ± 0.4%
- receptor occupancy at 1 µM (GAK): 57.4 ± 0.1%
